Experimental data as given in ChEMBL document CHEMBL1201862, “PubChem BioAssay data set” (2004).
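These data come from cells grown in 96-well plates and exposed to compound for 48 hours at five concentrations. At the GI50, growth is halved.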 Calls of active or inactive are those of the source. No stated cut-off is given here; in the data, active = GI50 up to about 1.1 µM and inactive = higher.

Experiments:
Test in all cases: DTP human tumour cell line panel, 48 h
KM12 = test system: KM12
MOLT-4 = test system: MOLT-4
SR = test system: SR
A498 = test system: A498
NCI/ADR-RES = test system: NCI/ADR-RES
NCI-H460 = test system: NCI-H460
HOP-62 = test system: HOP-62
DU-145 = test system: DU-145
SF-295 = test system: SF-295
OVCAR-8 = test system: OVCAR-8
TK-10 = test system: TK-10
OVCAR-5 = test system: OVCAR-5
PC-3 = test system: PC-3
RXF 393 = test system: RXF 393
OVCAR-3 = test system: OVCAR-3
EKVX = test system: EKVX
CAKI-1 = test system: CAKI-1
MDA-MB-231 = test system: MDA-MB-231

Structure (SMILES)	GI50 (KM12)	GI50 (MOLT-4)	GI50 (SR)	GI50 (A498)	GI50 (NCI/ADR-RES)	GI50 (NCI-H460)	GI50 (HOP-62)	GI50 (DU-145)	GI50 (SF-295)	GI50 (OVCAR-8)	GI50 (TK-10)	GI50 (OVCAR-5)	GI50 (PC-3)	GI50 (RXF 393)	GI50 (OVCAR-3)	GI50 (EKVX)	GI50 (CAKI-1)	GI50 (MDA-MB-231)
Cc1cc(C)c(N[S+]([O-])c2cccc(Cl)c2)c(C)c1 (centres undefined)	> 100 µM (inactive)	> 100 µM (inactive)	> 100 µM (inactive)	29.2 µM (inactive)	> 100 µM (inactive)	> 100 µM (inactive)	> 100 µM (inactive)	> 100 µM (inactive)	> 100 µM (inactive)	> 100 µM (inactive)	> 100 µM (inactive)	> 100 µM (inactive)	> 100 µM (inactive)	> 100 µM (inactive)	> 100 µM (inactive)	> 100 µM (inactive)	–	–
CCN(CC)c1ccc(C2Nc3ccc4ccccc4c3C3=C2C(=O)CCC3)cc1 (centres undefined)	> 100 µM (inactive)	> 100 µM (inactive)	–	45.4 µM (inactive)	26.6 µM (inactive)	> 100 µM (inactive)	20.4 µM (inactive)	23.9 µM (inactive)	24.6 µM (inactive)	14.7 µM (inactive)	–	> 100 µM (inactive)	39.3 µM (inactive)	17.3 µM (inactive)	16.4 µM (inactive)	> 100 µM (inactive)	33.7 µM (inactive)	11.7 µM (inactive)
CC1=CC(=O)/C(=C/NC(=S)NCCc2ccccc2)C(=O)O1	> 100 µM (inactive)	> 100 µM (inactive)	–	–	> 100 µM (inactive)	> 100 µM (inactive)	> 100 µM (inactive)	> 100 µM (inactive)	> 100 µM (inactive)	> 100 µM (inactive)	6.44 µM (inactive)	> 100 µM (inactive)	> 100 µM (inactive)	–	> 100 µM (inactive)	> 100 µM (inactive)	> 100 µM (inactive)	> 100 µM (inactive)
CSC(=S)NN=C1CCCC1.CSC(=S)NN=C1CCCC1.[Zn+2]	41 µM (inactive)	9.66 µM (inactive)	–	> 100 µM (inactive)	> 100 µM (inactive)	31.6 µM (inactive)	28.3 µM (inactive)	58.5 µM (inactive)	16.8 µM (inactive)	14.4 µM (inactive)	19.8 µM (inactive)	31.3 µM (inactive)	25.8 µM (inactive)	28.4 µM (inactive)	24.6 µM (inactive)	55.1 µM (inactive)	46.7 µM (inactive)	17.8 µM (inactive)
Cc1ccc(C2(c3ccc(F)cc3)OC(=O)c3ccccc32)c(O)c1 (centres undefined)	15.5 µM (inactive)	10.8 µM (inactive)	–	19.6 µM (inactive)	16.1 µM (inactive)	17 µM (inactive)	14.6 µM (inactive)	15.4 µM (inactive)	11.5 µM (inactive)	18.2 µM (inactive)	15.1 µM (inactive)	14.4 µM (inactive)	–	–	3.56 µM (inactive)	16 µM (inactive)	11.6 µM (inactive)	17.9 µM (inactive)
CNC(=S)NN=C1NCCCCN1	> 100 µM (inactive)	> 100 µM (inactive)	> 100 µM (inactive)	> 100 µM (inactive)	> 100 µM (inactive)	> 100 µM (inactive)	> 100 µM (inactive)	–	> 100 µM (inactive)	> 100 µM (inactive)	> 100 µM (inactive)	> 100 µM (inactive)	> 100 µM (inactive)	> 100 µM (inactive)	> 100 µM (inactive)	> 100 µM (inactive)	29.2 µM (inactive)	> 100 µM (inactive)
CC(=O)c1c(O)c(C)c(O)c(Cc2c(O)c3c(c(C(=O)/C=C/c4ccccc4)c2O)OC(C)(C)C=C3)c1O [ROTTLERIN]	2.81 µM (inactive)	1.89 µM (inactive)	–	1.95 µM (inactive)	2.53 µM (inactive)	2.94 µM (inactive)	–	3.49 µM (inactive)	2.85 µM (inactive)	3.08 µM (inactive)	2.98 µM (inactive)	3.56 µM (inactive)	1.11 µM (active)	–	2.7 µM (inactive)	2.68 µM (inactive)	2.91 µM (inactive)	2.08 µM (inactive)
Cc1ccc(Nc2nc(C)c(C(=O)CC(=O)C(=O)Nc3ccc(Cl)cc3)s2)cc1	> 100 µM (inactive)	> 100 µM (inactive)	> 100 µM (inactive)	> 100 µM (inactive)	–	> 100 µM (inactive)	> 100 µM (inactive)	> 100 µM (inactive)	> 100 µM (inactive)	–	> 100 µM (inactive)	> 100 µM (inactive)	> 100 µM (inactive)	> 100 µM (inactive)	> 100 µM (inactive)	> 100 µM (inactive)	> 100 µM (inactive)	56.5 µM (inactive)
Cc1cc(C)nc(NC(=S)Nc2ccccc2Cl)c1	> 100 µM (inactive)	> 100 µM (inactive)	> 100 µM (inactive)	> 100 µM (inactive)	> 100 µM (inactive)	> 100 µM (inactive)	> 100 µM (inactive)	> 100 µM (inactive)	> 100 µM (inactive)	> 100 µM (inactive)	> 100 µM (inactive)	> 100 µM (inactive)	> 100 µM (inactive)	> 100 µM (inactive)	> 100 µM (inactive)	> 100 µM (inactive)	> 100 µM (inactive)	–
CC1(O)Oc2ccc3ccccc3c2C=C1C(N)=O (centres undefined)	> 100 µM (inactive)	18.6 µM (inactive)	46.5 µM (inactive)	28.1 µM (inactive)	–	61.1 µM (inactive)	36.7 µM (inactive)	> 100 µM (inactive)	> 100 µM (inactive)	–	> 100 µM (inactive)	–	64.9 µM (inactive)	49.2 µM (inactive)	–	54 µM (inactive)	80.5 µM (inactive)	38.9 µM (inactive)
Nc1ncc(Cc2nc3ccccc3s2)s1	56.4 µM (inactive)	> 100 µM (inactive)	–	–	91.6 µM (inactive)	73.6 µM (inactive)	> 100 µM (inactive)	> 100 µM (inactive)	40.9 µM (inactive)	57.3 µM (inactive)	85.5 µM (inactive)	> 100 µM (inactive)	63.5 µM (inactive)	> 100 µM (inactive)	47.3 µM (inactive)	30 µM (inactive)	53.3 µM (inactive)	69.8 µM (inactive)
CSc1nc(-c2ccccc2)nc(C(C#N)C#N)n1	> 100 µM (inactive)	> 100 µM (inactive)	–	> 100 µM (inactive)	> 100 µM (inactive)	–	> 100 µM (inactive)	> 100 µM (inactive)	> 100 µM (inactive)	> 100 µM (inactive)	> 100 µM (inactive)	> 100 µM (inactive)	> 100 µM (inactive)	> 100 µM (inactive)	> 100 µM (inactive)	> 100 µM (inactive)	> 100 µM (inactive)	> 100 µM (inactive)
NS(=O)(=O)c1cccc(NC(=S)NC(=O)Nc2ccc(Cl)c(Cl)c2)c1	15.8 µM (inactive)	12 µM (inactive)	–	12.7 µM (inactive)	15.9 µM (inactive)	16.7 µM (inactive)	15.5 µM (inactive)	30.1 µM (inactive)	22.6 µM (inactive)	17.3 µM (inactive)	32.5 µM (inactive)	25 µM (inactive)	22.4 µM (inactive)	22.8 µM (inactive)	–	–	–	17.7 µM (inactive)
